Data taken from US20090181975A1, “NEBIVOLOL IN THE TREATMENT OF SEXUAL DYSFUNCTION” (FOREST LABORATORIES HOLDINGS LIMITED, priority 2008, published 2009).

How the values were obtained:
[1] = system: nitrite plus nitrate (NOx) in rat serum; assay: Serum nitrite plus nitrate (NOx) by Griess colorimetric method; type: in vivo; settings: for effect on serum NOx concentration: i.v.: nebivolol 3 mg/kg, atenolol 3 mg/kg, vs vehicle
Method: Total NO derivatives (nitrites plus nitrates) were measured in pre-filtered (10,000 MW pore size) serum samples from the studied rats by the Griess colorimetric method, using a commercial kit for nitrite and nitrate determination from Cayman Chemical Co. (Ann Arbor, Mich.). Serum concentrations of NOx were determined 10 minutes after nebivolol administration.

diabetic rats = assay: Erectile responses to cavernosal nerve electrical stimulation (CNES) in STZ-diabetic rats; type: in vivo, rat (Sprague-Dawley); settings: for erectile responses after sildenafil compared with non diabetic rats treated with sildenafil: 10 days treatment, then sildenafil 0.3 mg/kg i.v.
Method: Male Sprague-Dawley rats were used as a model for this study. Diabetes was induced by a single injection of streptozotocin (STZ, 60 mg/kg; i.p.) dissolved in 0.1 M citric acid/trisodic citrate buffer (pH 4-4.5) and was assessed by glycemia determination 72 h after induction. Animals were kept, with free access to food and water, for 8 weeks before experimental assays. Eight weeks after induction of diabetes, rats show reduced erectile responses (Angulo et al., Naunyn-Schmiedeberg's Arch Pharmacol, 358(5), 529-37, 1998; Angulo et al., J. Sex Med., 2, 341-346, 2005). Blood glucose concentration was determined each week and just before the experiment. Insulin levels were not determined. Rats were anesthetized with ketolar and diazepam. The surgical procedure consisted of dissection and isolation of the right cavernous nerve through an abdominal midline incision and exposure of penile crura through a transverse perineal incision. Intracavernosal pressure (ICP) measurements were permitted by insertion of a 23-gauge needle into the right crus. The right carotid artery and left external jugular vein were catheterized for constant blood pressure measurement and saline infusion, respectively. Electrostimulation was performed with a delicate platinum bipolar hook electrode connected to a stimulator and current amplifier. The parameters of electrical stimulation consisted of pulses with a duration of 0.3 ms and 1.5 mA of current intensity for 1 min. Frequency-response curves were performed by applying stimulation at 1, 3 and 10 Hz with a lapse of 3 min between each increase of frequency (Angulo et al., J. Sex Med., 2, 341-346, 2005). […] After this period of treatment, the diabetic rats were anesthetized and ICP responses to electrical stimulation were evaluated. After an equilibration period, the PDE5 inhibitor sildenafil (0.3 mg/kg) or the vehicle (25% glycofurol) was intravenously administered. Forty five minutes later, ICP responses were again determined

[2] = system: nitrite plus nitrate (NOx) in rat serum; assay: Serum NOx in STZ-diabetic rats; type: in vivo, rat (Sprague-Dawley); settings: for effect on NOx content in sera from diabetic rats: 3 and 10 mg/kg/day s.c. for 10 days
Method: Male Sprague-Dawley rats were used as a model for this study. Diabetes was induced by a single injection of streptozotocin (STZ, 60 mg/kg; i.p.) dissolved in 0.1 M citric acid/trisodic citrate buffer (pH 4-4.5) and was assessed by glycemia determination 72 h after induction. Animals were kept, with free access to food and water, for 8 weeks before experimental assays. Eight weeks after induction of diabetes, rats show altered in vivo vascular function (Angulo et al., Naunyn-Schmiedeberg's Arch Pharmacol, 358(5), 529-37, 1998) and reduced erectile responses (Angulo et al., J. Sex Med., 2, 341-346, 2005). Blood glucose concentration was determined each week and just before the experiment. Insulin levels were not determined. Total NO derivatives (nitrites plus nitrates) were measured in pre-filtered (10,000 MW pore size) serum samples from the studied rats by the Griess colorimetric method, using a commercial kit for nitrite and nitrate determination from Cayman Chemical Co. (Ann Arbor, Mich.). See […] et al., Methods Enzymol., 268, 142-151, 1996. […] After 10 days treatment, diabetic rats were anesthetized and erectile responses to cavernosal nerve electrical stimulation (CNES) were determined. After an equilibration period, the PDE-5 inhibitor sildenafil (0.3 mg/kg) or the vehicle (25% glycofurol) was intravenously administered. Forty five minutes later, erectile responses to CNES were again evaluated, and 5 min after CNES application, blood was collected for obtaining plasma and serum, and the penis was excised. Serum samples were immediately frozen until determinations of NOx and TBARS. Plasma and penile tissues were immediately frozen until determinations of cGMP.

cGMP in penile tissue = assay: Penile tissue cGMP in STZ-diabetic rats; type: in vivo, rat (Sprague-Dawley); settings: for cGMP content in penile tissue from diabetic rats after administration of sildenafil: then sildenafil 0.3 mg/kg i.v.
Method: Male Sprague-Dawley rats were used as a model for this study. Diabetes was induced by a single injection of streptozotocin (STZ, 60 mg/kg; i.p.) dissolved in 0.1 M citric acid/trisodic citrate buffer (pH 4-4.5) and was assessed by glycemia determination 72 h after induction. Animals were kept, with free access to food and water, for 8 weeks before experimental assays. Eight weeks after induction of diabetes, rats show altered in vivo vascular function (Angulo et al., Naunyn-Schmiedeberg's Arch Pharmacol, 358(5), 529-37, 1998) and reduced erectile responses (Angulo et al., J. Sex Med., 2, 341-346, 2005). Blood glucose concentration was determined each week and just before the experiment. Insulin levels were not determined. Plasma samples were collected, immediately frozen and stored at −80° C. until extraction for cyclic nucleotide assay. Samples were then precipitated in ethanol, centrifuged and the supernatant was dried under a nitrogen stream. Penile tissues were rapidly immersed in liquid nitrogen and were stored at −80° C. until extraction for cyclic nucleotide assay. […] After 10 days treatment, diabetic rats were anesthetized and erectile responses to cavernosal nerve electrical stimulation (CNES) were determined. After an equilibration period, the PDE-5 inhibitor sildenafil (0.3 mg/kg) or the vehicle (25% glycofurol) was intravenously administered. Forty five minutes later, erectile responses to CNES were again evaluated, and 5 min after CNES application, blood was collected for obtaining plasma and serum, and the penis was excised. Serum samples were immediately frozen until determinations of NOx and TBARS. Plasma and penile tissues were immediately frozen until determinations of cGMP.

[3] = system: human corpus cavernosum (HCC) strips; assay: Relaxation of human corpus cavernosum strips contracted with U46619; type: cell-based; settings: for relaxation of HCC strips by cumulative addition: U46619 1-3 nM, nebivolol 1 nM to 0.1 mM; for relaxation of HCC strips by cumulative addition / effect on sildenafil-induced relaxation of HCC strips: sildenafil 1 nm to 10 μM; for effect on acetylcholine-induced endothelium-dependent relaxation of HCC strips: metoprolol 1 μM, nebivolol 0.3 μM; for effect on acetylcholine-induced endothelium-dependent relaxation of HCC strips / effect on sildenafil-induced relaxation of HCC strips: atenolol 1 μM; for effect on sildenafil-induced relaxation of HCC strips: nebivolol at 1 and 10 μM
Method: Specimens of human corpus cavernosum were obtained from organ donors and from impotent men at the time of penile prosthesis implantation. Tissues were placed in ice-cold M-400 solution (pH 7.4; 400 mOsm/kg, composition in w/v: 4.19% manitol, 0.2% KH2PO4, 0.97% K2HPO4.3H2O, 0.11% KCl and 0.08% NaHCO3) at the time of removal and transported to the laboratory for utilization within 16 h. Strips of human corpus cavemosum were mounted on force transducers in 8 ml organ baths (37° C.) containing physiological salt solution (PSS) continuously bubbled with 95% O2/5% CO2 mixture to maintain a pH of 7.4. Strips were contracted with the thromboxane receptor agonist U46619 (1-3 nM) and relaxation responses were evaluated by cumulative additions of compounds to the chambers.

[4] = 3 mg/kg/day s.c. for 10 days, sildenafil 0.3 mg/kg i.v.
[5] = 10 mg/kg/day s.c. for 10 days, sildenafil 0.3 mg/kg i.v., atenolol: measured as AUC of ICP

In the case of `OC(CNCC(O)C1CCc2cc(F)ccc2O1)C1CCc2cc(F)ccc2O1` (racemic) [nebivolol, α,α′-iminobis(methylene)bis[6-fluoro-2-chromanmethanol]], the “increase of the concentration of NOx in serum compared to the vehicle” value ([1]; 3 mg/kg i.v.) is reported as “three-fold increase”, the “concentration of NOx in serum” value ([1]; 3 mg/kg i.v., 10 minutes after administration, vehicle 4.9±0.4, p<0.05) is reported as 15.4 ± 2.8 µM and the “effect on serum NOx concentration” value ([1]; sildenafil 0.3 mg/kg) is reported as “significantly higher than after vehicle”. For the same compound, the “erectile effect of 3 mg/kg/day dose compared with 10 mg/kg/day dose” value (diabetic rats; 3 mg/kg/day for 10 days) was “equally as effective as the 10 mg/kg/day dose”, the “potentiation by sildenafil of erectile responses after 10 days treatment” value (from here on “potentiation by sildenafil”) (diabetic rats; [4]) was “No significant potentiation” and the “potentiation by sildenafil” value (diabetic rats; [5]) was “No significant potentiation”. The “effect on erectile responses in diabetic rats in the absence of the PDE5 inhibitor” value (diabetic rats; 3 and 10 mg/kg/day for 10 days) was “significantly enhanced”, the “erectile responses in treated diabetic rats compared with non diabetic rats” value (diabetic rats; 3 and 10 mg/kg/day for 10 days, no PDE5 inhibitor) was “not significantly different from those achieved by non diabetic rats” and the “erectile responses after sildenafil compared with non diabetic rats treated with sildenafil” value (diabetic rats) was “not significant differences”. The “effect on NOx content in sera from diabetic rats” value [2] was “significantly increased”, the “NOx effect, comparison of doses” value ([2]; 3 vs 10 mg/kg/day) was “more marked with the 3 mg/kg/day dose” and the “effect on cGMP content in penile tissue from diabetic rats” value (cGMP in penile tissue; 3 and 10 mg/kg/day for 10 days) was “statistically significant increase”. The “cGMP content in penile tissue from diabetic rats after administration of sildenafil” value (cGMP in penile tissue; 3 and 10 mg/kg/day for 10 days) was “significantly higher than those obtained in diabetic rats treated with vehicle”, the “relaxation of HCC strips by cumulative addition” value [3] was “modest relaxant effect” and the “effect on acetylcholine-induced endothelium-dependent relaxation of HCC strips” value [3] was “not significantly modified”. For the same compound, the “effect on sildenafil-induced relaxation of HCC strips” value [3] was “significantly potentiated” and the “effect on acetylcholine-induced (endothelium-dependent) relaxation of HCC” value ([3]; pre-treatment with nebivolol 10 μM) was “potentiated”.
With `CC(C)NCC(O)COc1ccc(CC(N)=O)cc1` (stereo not drawn) [atenolol] the “effect on serum NOx concentration” value ([1]; sildenafil 0.3 mg/kg) was “did not significantly alter”, the “potentiation by sildenafil” value (diabetic rats; [4]) was “did not reach statistical significance” and the “effect of the higher dose on erectile function in diabetic rats” value (diabetic rats; 10 mg/kg/day for 10 days) was “did not positively affect”. For the same compound, the “potentiation by sildenafil” value (diabetic rats; [5]) was “reached statistical significance”, the “erectile responses after sildenafil compared with non diabetic rats treated with sildenafil” value (diabetic rats) was “significantly reduced erectile responses” and the “effect on NOx content in sera from diabetic rats” value [2] was “did not affect”. The “cGMP content in penile tissue from diabetic rats after administration of sildenafil” value (cGMP in penile tissue; 3 and 10 mg/kg/day for 10 days) was “did not modify”, the “effect on acetylcholine-induced endothelium-dependent relaxation of HCC strips” value [3] was “not significantly modified” and the “effect on sildenafil-induced relaxation of HCC strips” value [3] was “not affected”.
For `CCCc1nn(C)c2c(=O)[nH]c(-c3cc(S(=O)(=O)N4CCN(C)CC4)ccc3OCC)nc12` [sildenafil], the “effect on serum NOx concentration” value ([1]; sildenafil 0.3 mg/kg) was “did not alter NOx levels”, the “effect on nebivolol-induced increment in serum NOx” value ([1]; nebivolol 3 mg/kg i.v., L-NAME 3 mg/kg, ODQ 1 mg/kg, propranolol 1 mg/kg, sildenafil 0.3 mg/kg) was “did not alter NOx levels or affect nebivolol-induced effects” and the “effect on erectile responses to CNES in diabetic rats” value (diabetic rats; sildenafil 0.3 mg/kg i.v., vehicle-treated diabetic rats) was “potentiation of erectile responses”. The “effect on serum NOx content in rats” value ([2]; sildenafil 0.3 mg/kg i.v.) was “did not modify”, the “influence on the effects of nebivolol and atenolol on NOx content in sera from diabetic rats” value ([2]; sildenafil 0.3 mg/kg i.v.) was “not influenced” and the “effect on cGMP levels in penile tissue from diabetic and non diabetic rats” value (cGMP in penile tissue; sildenafil 0.3 mg/kg i.v.) was “produced an increase”. For the same compound, the “relaxation of HCC strips by cumulative addition” value [3] was “concentration dependent relaxations”.
